Columns and labels:
DCAF16 = molecular target: T1, DCAF16 (Homo sapiens, UniProt Q9NXF7); assay: Competitive ABPP (TMT) of cysteine engagement in endogenous DCAF16; format: cell-based; conditions: HEK293T, 1.5 h
T1 construct: endogenously expressed DCAF16 in HEK293T cells; endogenous in cells; host or cells: HEK293T
Experimental: HEK293T cells were treated with DMSO (four biological replicates), 2 μM KB02-SLF (three biological replicates) or 20 μM KB02-JQ1 (three biological replicates) for 1.5 h (ten samples in total). Cells were collected, washed once with PBS and lysed in PBS by sonication (40%, 4, 20 pulses). Samples were clarified by centrifugation for 10 min at 8,000 g. Lysate was adjusted to 1.0 mg/mL in 500 μL. Samples were labeled with 100 μM iodoacetamide alkyne (5 μL of 10 mM stock in DMSO) at room temperature for 1 hour, conjugated by CuACC to desthiobiotin azide (10 μL of 5 mM stock in DMSO, final concentration=100 tris(2-carboxyethyl)phosphine hydrochloride (TCEP, 10 μL of 50 mM stock in H2O, final concentration=1 mM), TBTA (30 μL of 1.7 mM stock in 4:1 tBuOH:DMSO, final concentration=100 μM) and CuSO4 (10 μL of 50 mM stock in H2O, final concentration=1 mM). The samples were allowed to react for 1 hour at room temperature. Proteins were precipitated by adding 3.5 mL of H2O, 4 mL of methanol and 1.5 mL of chloroform, followed by centrifugation at 5,000 g for 15 min (4° C.). After aspirating the top layer, the protein pellets with bottom layer were washed with 8 mL cold methanol by centrifugation at 5,000 g for 15 min (4° C.). Protein pellets were resuspended in 90 μL of buffer containing 9 M urea, 10 mM DTT and 50 mM tetramethylammonium bicarbonate (pH 8.5), sonicated (40%, 4, 5 pulses) and heated at 65° C. for 20 min. Samples were cooled to room temperature and alkylated with 50 mM iodoacetamide (10 μL of 500 mM stock in H2O) at 37° C. for 30 minutes. Samples were diluted with 350 μL of 50 mM tetramethylammonium bicarbonate (pH 8.5) and digested with 2 μg trypsin at 37° C. for 4 hours. 40 μL of streptavidin-agarose beads slurry was washed in immunoprecipitation (IP) washing buffer and added to each sample. Beads with peptide samples were rotated for 1 hour at room temperature, filtered off by micro Bio-Spin chromatography column (Bio-Rad) and washed with 1 mL of IP washing buffer (three times), 1 mL of PBS (three times) and 1 mL of H2O. Peptides were eluted by adding 300 μL of 50% acetonitrile with 0.1% of formic acid and dried in vacuum concentrator.
Peptides were resuspended in 100 μL of 30% acetonitrile in 200 mM EPPS (pH 8) and labeled with TMT10plex isobaric reagent following the manufacturer's instructions. 0.15% of hydroxylamine (3 μL of 5% stock in H2O) was added to each sample to quench the reaction (incubate for 15 minutes). After adding 5 μL of formic acid to each sample, 10 peptide samples were combined and dried in vacuum concentrator. […]
(§1) The samples were analyzed in Orbitrap Fusion Tribrid mass spectrometer (Thermo Scientific) coupled to UltiMate 3000 HPLC system (Thermo Scientific). […]

[1] = Cell viability assay (Cell Titer Glo); format: cell-based, human; conditions: human, HEK293T cells, 24 hours, read-out: cytotoxicity IC50
Experimental: HEK293T cells were seeded in 96-well clear bottom white plate (Corning) at 3×10^4 cells per well in 100 μL of DMEM medium and grown for 24 h. The cells were treated with 0.625, 1.25, 2.5, 5, 10, 20 and 40 μM of KB02-SLF or KB02-JQ1 (DMSO stock, final DMEM concentration is 0.1% (v/v)) in 100 μL of DMEM medium for 24 h. 50 μL of Cell Titer Glo reagent (Promega) was added to each well and incubate for 10 min at room temperature. The luminescence was read on CLARIOstar (BMG LAB TECH).

ACAT1 = molecular target: T2, ACAT1 (Homo sapiens, UniProt P24752); assay: Competitive ABPP (TMT) of cysteine engagement in ACAT1; format: cell-based; conditions: HEK293T, 1.5 h
T2 construct: endogenous in cells; host or cells: HEK293T
T2 sequence (P24752 34-427): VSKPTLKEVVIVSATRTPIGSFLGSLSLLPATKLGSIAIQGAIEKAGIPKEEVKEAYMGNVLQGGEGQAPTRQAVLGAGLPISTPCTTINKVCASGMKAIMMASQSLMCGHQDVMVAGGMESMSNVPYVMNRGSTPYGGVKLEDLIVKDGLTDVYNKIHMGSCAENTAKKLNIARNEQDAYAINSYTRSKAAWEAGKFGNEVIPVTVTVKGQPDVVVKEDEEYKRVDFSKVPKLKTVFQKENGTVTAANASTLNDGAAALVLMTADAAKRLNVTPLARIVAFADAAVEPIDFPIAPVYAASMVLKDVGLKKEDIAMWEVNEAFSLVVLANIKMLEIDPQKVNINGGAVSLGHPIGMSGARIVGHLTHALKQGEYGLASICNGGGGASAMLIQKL
Experimental: HEK293T cells were treated with DMSO (four biological replicates), 2 μM KB02-SLF (three biological replicates) or 20 μM KB02-JQ1 (three biological replicates) for 1.5 h (ten samples in total). Cells were collected, washed once with PBS and lysed in PBS by sonication (40%, 4, 20 pulses). Samples were clarified by centrifugation for 10 min at 8,000 g. Lysate was adjusted to 1.0 mg/mL in 500 μL. Samples were labeled with 100 μM iodoacetamide alkyne (5 μL of 10 mM stock in DMSO) at room temperature for 1 hour, conjugated by CuACC to desthiobiotin azide (10 μL of 5 mM stock in DMSO, final concentration=100 tris(2-carboxyethyl)phosphine hydrochloride (TCEP, 10 μL of 50 mM stock in H2O, final concentration=1 mM), TBTA (30 μL of 1.7 mM stock in 4:1 tBuOH:DMSO, final concentration=100 μM) and CuSO4 (10 μL of 50 mM stock in H2O, final concentration=1 mM). The samples were allowed to react for 1 hour at room temperature. Proteins were precipitated by adding 3.5 mL of H2O, 4 mL of methanol and 1.5 mL of chloroform, followed by centrifugation at 5,000 g for 15 min (4° C.). After aspirating the top layer, the protein pellets with bottom layer were washed with 8 mL cold methanol by centrifugation at 5,000 g for 15 min (4° C.). […]
as §1

| engagement of DCAF16 C119 (DCAF16; KB02-JQ1 20 μM) | engagement of DCAF16 peptide (aa 168-184) containing cysteines 173 and 177-179 (DCAF16; KB02-JQ1 20 μM) [%] | engagement of ACAT1 C126 (ACAT1; KB02-JQ1 20 μM) | Compound | engagement of DCAF16 C119 (DCAF16; KB02-SLF 2 μM) | engagement of DCAF16 peptide (aa 168-184) containing cysteines 173 and 177-179 (DCAF16; KB02-SLF 2 μM) [%] | IC50 at 24 h [1] [µM] | engagement of ACAT1 C126 (ACAT1; KB02-SLF 2 μM) |
| --- | --- | --- | --- | --- | --- | --- | --- |
| – | – | – | CCC(C)(C)C(=O)C(=O)N1CCCC[C@H]1C(=O)O[C@H](CCc1ccc(OC)c(OC)c1)c1cccc(NC(=O)CCOCCOCCNC(=O)COc2ccc3c(c2)CCCN3C(=O)CCl)c1 [KB02-SLF, (R)-1-(3-(3-(2-(2-(2-((1-(2-chloroacetyl)-1,2,3,4-tetrahydroquinolin-6-yl)oxy)acetamido)ethoxy)ethoxy)propanamido)phenyl)-3-(3,4-dimethoxyphenyl)propyl (S)-1-(3,3-dimethyl-2-oxopentanoyl)piperidine-2-carboxylate] | no evidence of engagement | ~10 | 14 ± 1.1 | fully engaged |
| no evidence of engagement | 40 | fully engaged | Cc1sc2c(c1C)C(c1ccc(Cl)cc1)=N[C@@H](CC(=O)NCCOCCOCCNC(=O)COc1ccc3c(c1)CCCN3C(=O)CCl)c1nnc(C)n1-2 [KB02-JQ1, (S)-2-((1-(2-chloroacetyl)-1,2,3,4-tetrahydroquinolin-6-yl)oxy)-N-(2-(2-(2-(2-(4-(4-chlorophenyl)-2,3,9-trimethyl-6H-thieno[3,2-f][1,2,4]triazolo[4,3-a][1,4]diazepin-6-yl)acetamido)ethoxy)ethoxy)ethyl)acetamide] | – | – | > 50 | – |

From US11691984B2, “Compounds and methods for DCAF-mediated protein degradation” (The Scripps Research Institute, priority 2018, dated 2023)
